In one assay the test system is EGFR. Also noted: method as in Fry et al., 1994. To be noted: phospho-WB in A-431 cells; ref Fry et al., 1994; read-out: IC50_Literature, EGFR; cited from earlier work.
Assay [1] deals with SkBr3, BT474 and HER2-overexpressing ovarian cancer cells SkOV3. Also noted: method as in Moasser et al., 2001. To be noted: cell growth assay in SkBr3, BT474 and SkOV3 cells; ref Moasser et al., 2001; read-out: IC50_Literature, ERBB2; cited from earlier work.
Another assay deals with ERBB3. More on the design: method as in Boateng et al., 2021. To be noted: ELISA in MCF-7 cells; ref Boateng et al., 2021; read-out: IC50_Literature, ERBB3; cited from earlier work.
Another assay deals with HTR2A (Homo sapiens, UniProt P28223). In words: ERBBprofiler barcoded split TEV assay, HTR2A.
Sequence of HTR2A (P28223 whole entry): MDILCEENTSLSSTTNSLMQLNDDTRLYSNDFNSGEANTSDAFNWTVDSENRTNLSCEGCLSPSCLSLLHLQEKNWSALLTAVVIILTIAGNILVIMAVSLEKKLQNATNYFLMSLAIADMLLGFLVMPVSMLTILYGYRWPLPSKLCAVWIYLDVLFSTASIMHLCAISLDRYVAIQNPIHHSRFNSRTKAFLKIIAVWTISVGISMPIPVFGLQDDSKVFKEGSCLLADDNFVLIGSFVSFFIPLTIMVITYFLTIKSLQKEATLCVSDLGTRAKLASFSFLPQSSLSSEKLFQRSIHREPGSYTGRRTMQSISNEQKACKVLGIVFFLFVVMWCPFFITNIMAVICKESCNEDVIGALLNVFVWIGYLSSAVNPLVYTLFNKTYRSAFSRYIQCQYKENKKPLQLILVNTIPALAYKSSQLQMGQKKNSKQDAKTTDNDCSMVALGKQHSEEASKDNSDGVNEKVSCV
In a further assay the test system is EGFR CRE. Briefly: ERBBprofiler barcoded CRE pathway sensor, EGFR co-transfected. The settings on record: PC12 cells; constant EGF 30 ng/mL, EGFld 10 ng/mL, serotonin 1 μM; 6 h; barcode readout; relative IC50.
A further assay concerns ERBB4 CRE. In words: ERBBprofiler barcoded CRE pathway sensor, ERBB4 co-transfected. To be noted: PC12 cells; constant EGF 30 ng/mL, EGFld 10 ng/mL, serotonin 1 μM; 6 h; barcode readout; relative IC50.
The next assay concerns HTR2A CRE. In words: ERBBprofiler barcoded CRE pathway sensor, HTR2A co-transfected. The settings on record: Rattus norvegicus, PC-12, 6 h, read-out: HTR2A CRE IC50.
A further assay deals with EGFR EGR1p. Briefly: ERBBprofiler barcoded EGR1p pathway sensor, EGFR co-transfected. To be noted: Rattus norvegicus, PC-12, 6 h, read-out: EGFR EGR1p IC50.
The subject of the next assay is ERBB2/3 EGR1p. Briefly: ERBBprofiler barcoded EGR1p pathway sensor, ERBB2/3 co-transfected. The settings on record: Rattus norvegicus, PC-12, 6 h, read-out: ERBB2/3 EGR1p IC50.
The next assay concerns EGFR NFAT. Briefly: ERBBprofiler barcoded NFAT pathway sensor, EGFR co-transfected. To be noted: PC12 cells; constant EGF 30 ng/mL, EGFld 10 ng/mL, serotonin 1 μM; 6 h; barcode readout; relative IC50. The class given is cell-based, Rattus norvegicus.
The next assay relates to ERBB4 NFAT. In words: ERBBprofiler barcoded NFAT pathway sensor, ERBB4 co-transfected. The settings on record: PC12 cells; constant EGF 30 ng/mL, EGFld 10 ng/mL, serotonin 1 μM; 6 h; barcode readout; relative IC50. It counts as cell-based, Rattus norvegicus.
The next assay has as its system CRE sensor. Briefly: CRE sensor only luciferase assay in PC12 cells. It counts as cell-based, Rattus norvegicus.
Another assay relates to A-431 cells. More on the design: method as in Li et al., 2017. The settings on record: Proliferation assay, SRB method, ref Li et al., 2017, read-out: IC50_Literature, EGFR; cited from earlier work.
In assay [2] the test system is SK–BR–3 cells and NCI-N87 cells. More on the design: method as in Li et al., 2017. The settings on record: Proliferation assay, SRB method, ref Li et al., 2017, read-out: IC50_Literature, ERBB2; cited from earlier work.

Description for CRE sensor: 50,000 PC12 cells were seeded per 96-well onto poly-L-lysin (PLL)-coated plates and transfected the following day (day in vitro 1, DIV1) with assay plasmids using Lipofectamine 3000 (Thermo Fisher Scientific). […] For pathway assays, the receptor plasmids (15 ng/well) and pathway reporter plasmids (15 ng/well) pEGR1p-luc2 for monitoring MAPK signaling, pCRE-CMVmin-luc2 for monitoring cAMP/Ca^2+ signaling, or p6xNFAT-CMVmin-luc2 for Ca^2+ signaling were used. Transient transfections were conducted according to the manufacturer’s instructions. On DIV2, cells were starved in medium containing 1% FCS for 16 h. […] In the case of antagonist assays, compounds were added at increasing doses together with the stimulus. Cells were lysed in 1x passive lysis buffer (Promega) and subjected to a firefly luciferase assay using a self-made substrate for firefly luciferase.[100] Luciferase activity was analyzed in a Mithras LB 940 Multimode Microplate Reader (Berthold Technologies). All assays were run in 96-well plates using six replicates per condition.

Turning to `COc1cc2ncnc(Nc3cccc(Cl)c3)c2cc1OC` [AG1478, AG-1478 (Tyrphostin AG-1478)], the IC50 in the assay on EGFR is […]; in assay [1], 300 to 2000 nM; with ERBB3, 857 nM; against HTR2A it was 17 nM; in the assay on HTR2A CRE it was 31 nM; in the assay with EGFR EGR1p, 23 nM. Moreover, in the assay with ERBB2/3 EGR1p, the IC50 is 30 nM. The “EGFR CRE IC50” value in the assay on EGFR CRE is recorded as “no effect (EGFR, ERBB2/3, ERBB4); 0.031 µM (HTR2A, small effect)”. Besides, the “ERBB4 CRE IC50” value in the assay on ERBB4 CRE is reported as “no effect (EGFR, ERBB2/3, ERBB4); 0.031 µM (HTR2A, small effect)”.
For the molecule `CCOc1cc2ncc(C#N)c(Nc3ccc(OCc4ccccn4)c(Cl)c3)c2cc1NC(=O)/C=C/[C@H]1CCCN1C` [Pyrotinib], the “EGFR NFAT IC50” value in the assay on EGFR NFAT is “no effect (EGFR, ERBB2/3, ERBB4) - 0.576 µM (HTR2A, small effect)”. In the assay with ERBB4 NFAT, the “ERBB4 NFAT IC50” value is given as “no effect (EGFR, ERBB2/3, ERBB4) - 0.576 µM (HTR2A, small effect)”. In addition, in the assay with CRE sensor (PC12 cells, CRE sensor only, stimulation mix), the “effect on CRE sensor activity (luciferase), in words” value is on record as “CRE sensor activation at high compound concentrations”. Besides, the EC50 in the assay on CRE sensor (Rattus norvegicus, PC-12) stood at 1380 nM. Also, the IC50 in the assay with A-431 cells is 45 nM; in assay [2], 39 to 42 nM; against HTR2A it was 184 nM; in the assay with EGFR EGR1p, 261 nM; in the assay with ERBB2/3 EGR1p, 120 nM.

Values taken from publication PMC10831936 (iScience, 2024).
